Measured values published in patent publication US20260297016A1, “THERAPEUTIC COMPOUNDS” (REGENTS OF THE UNIVERSITY OF MINNESOTA, priority 2023, published 2026).
Entries after “also recorded” stand apart in the source; their conditions may differ.

Columns and labels:
STING = molecular target: T1, STING (Homo sapiens, UniProt Q86WV6, G230A/H232R/R293Q/R71H); test: IRF-Lucia Reporter STING Inhibition Assay (THP-1 Lucia ISG cells); assay type: cell-based; conditions: 1 μM 2,3-cGAMP, 20 hours
T1 construct: THP-1 Lucia ISG cells (InvivoGen, thpl-isg); host or cells: THP-1 Lucia ISG cells
Protocol: IRF-Lucia Reporter STING Inhibition Assay. […] Cells were incubated at 37° C. in a 5% CO2 atmosphere with varying concentrations of test compound for 1.5 hours, followed by treatment with 1 μM 2,3-cGAMP (InvivoGen, tlrl-nacga23-02) and incubated for 20 hours. A 20 μL aliquot of cell suspension was added to 50 μL. QUANTI-Luc™ reagent (InvivoGen, rep-qlc4lg2), and the resulting luminescence is measured by a GloMax Explorer (Promega) with a 0.1 second read time.

HMC3 cells = conditions: 12.5 μM, 200 μM TBHP
661 W cells [1] = test: 4-HNE-induced ROS production in 661 W cells; conditions: 12.5 μM, 2 hours, 4-HNE 10 μM, 24 hours, n=6
661 W cells [2] = conditions: 12.5 μM, 2 hours, H2O2 500 μM, 24 hours, n=6
661 W cells [3] = test: Viability of 661 W cells after H2O2 (trypan blue exclusion)
661 W cells [4] = test: Viability of 661 W cells after 4-HNE (trypan blue exclusion)
PPAR subtypes = conditions: cited from earlier work
PPARα = conditions: cited from earlier work
[5] = tested on: patients with type 2 diabetes; conditions: orally administered, FIELD and ACCORD; cited from earlier work

T1 sequence (Q86WV6 whole entry R71H/G230A/H232R/R293Q): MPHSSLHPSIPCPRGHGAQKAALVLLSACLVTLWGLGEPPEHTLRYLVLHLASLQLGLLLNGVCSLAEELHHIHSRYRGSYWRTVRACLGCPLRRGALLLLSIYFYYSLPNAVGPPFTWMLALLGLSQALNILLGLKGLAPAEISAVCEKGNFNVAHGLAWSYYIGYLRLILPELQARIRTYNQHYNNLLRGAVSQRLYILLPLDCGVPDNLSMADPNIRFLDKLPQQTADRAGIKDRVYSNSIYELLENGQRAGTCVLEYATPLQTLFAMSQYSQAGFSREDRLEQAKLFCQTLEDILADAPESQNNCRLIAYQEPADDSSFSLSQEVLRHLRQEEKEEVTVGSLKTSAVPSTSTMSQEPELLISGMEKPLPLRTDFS

Row | SMILES | % STING INHIBITION, % at 12.5 μm (STING) | % STING INHIBITION, % at 25 μm (STING) | % STING INHIBITION, % at 50 μm (STING) | other results
1 | CC(C)(C)c1ccc(-c2ccc(CNc3ccc(O)c(C(=O)O)c3)cc2)cc1 [Example 36, 5-(((4′-(tert-Butyl)-[1,1′-biphenyl]-4-yl)methyl)amino)-2-hydroxybenzoic acid] | 0% | 0% | >95% | 
2 | Cc1cc(F)ccc1-c1ccc(CNc2ccc(O)c(C(=O)O)c2)cc1 [Example 41, 5-(((4′-Fluoro-2′-methyl-[1,1′-biphenyl]-4-yl)methyl)amino)-2-hydroxybenzoic acid] | 25% | 47% | 80% | 
3 | COc1ccc(NCc2ccc(-c3ccc(F)cc3)cc2)cc1C(=O)O [Example 46, 5-(((4′-fluoro-[1,1′-biphenyl]-4-yl)methyl)amino)-2-methoxybenzoic acid] | 9% | 31% | 53% | 
4 | N#Cc1cc(NCc2ccc(-c3ccc(F)cc3)cc2)ccc1O [Example 47, 5-(((4′-Fluoro-[1,1′-biphenyl]-4-yl)methyl)amino)-2-hydroxybenzonitrile] | 40% | 80% | 99% | 
5 | Oc1ccc(NCc2ccc(-c3ccc(F)cc3)cc2)cc1-c1nnn[nH]1 [Example 48] | 0% | 32% | 77% | 
6 | O=C(Nc1ccc(O)c(NS(=O)(=O)c2ccc(F)cc2)c1)c1ccc(-c2ccccc2)cc1 [SN-011] |  |  |  | TBHP-induced production of ROS (oxidative stress) (HMC3 cells): greater reduction in oxidative stress than PPARα agonism (Example 31 (BH400); 4-HNE-induced production of ROS (661 W cells [1]): the difference between SN011 and Example 17 is less pronounced; H2O2-induced ROS production (661 W cells [2]): the difference between SN011 and Example 17 is less pronounced; cell viability after H2O2 (661 W cells [3]; 1 μM and 10 μM, H2O2 500 μM, 24 hours, n=3): fails to show a dose-response improvement between 1 μM and 10 μM; also recorded: Improvement in cell viability; cell viability after H2O2 (661 W cells [3]; 1 μM, SN-011 vs Example 31): no significant difference; cell viability after 4-HNE (661 W cells [4]; 1 μM and 10 μM, 4-HNE 10 μM, 24 hr, n=3): fails to show a dose-response improvement between 1 μM and 10 μM; also recorded: Improvement in cell viability; cell viability after 4-HNE (661 W cells [4]; 1 μM, SN-011 vs Example 31): no significant difference
7 | CC(C)OC(=O)C(C)(C)Oc1ccc(C(=O)c2ccc(Cl)cc2)cc1 [fenofibrate] |  |  |  | selectivity among PPAR subtypes (PPAR subtypes): lack of selectivity among PPAR subtypes; affinity for PPARα (PPARα): low affinity for PPARα; progression of DR and other microvascular endpoints [5]: significantly reduced the progression of DR and other microvascular endpoints
8 | CC(C)(Oc1ccc(C(=O)c2ccc(Cl)cc2)cc1)C(=O)O [fenofibric acid] |  |  |  | agonism of PPARα by major metabolite (PPARα; major metabolite of fenofibrate): agonism of PPARα

Continued, in another order:

Row | % STING INHIBITION, % at 12.5 μm (STING) | % STING INHIBITION, % at 25 μm (STING) | % STING INHIBITION, % at 50 μm (STING) | SMILES | other results
9 | 0% | 28% | 66% | O=C(O)c1cc(NCc2ccc(-c3ccccc3)cc2)ccc1O [Example 37, 5-(([1,1′-Biphenyl]-4-ylmethyl)amino)-2-hydroxybenzoic acid] | 
10 | 0% | 39% | 90% | O=C(O)c1cc(NCc2ccc(-c3ccc(F)c([N+](=O)[O-])c3)cc2)ccc1O [Example 38, 5-(((4′-Fluoro-3′-nitro-[1,1′-biphenyl]-4-yl)methyl)amino)-2-hydroxybenzoic acid] | 
11 | 0% | 0% | 0% | COc1cc(F)ccc1-c1ccc(CNc2ccc(O)c(C(=O)O)c2)cc1 [Example 39, 5-(((4′-Fluoro-2′-methoxy-[1,1′-biphenyl]-4-yl)methyl)amino)-2-hydroxybenzoic acid] | 
12 | 0% | 0% | 0% | COc1ccc(NCc2ccc(-c3ccc(F)cc3)cc2)cc1C#N [Example 43, 5-(((4′-Fluoro-[1,1′-biphenyl]-4-yl)methyl)amino)-2-methoxybenzonitrile] | 
13 | 0% | 12% | 81% | Cc1cc(-c2ccc(CNc3ccc(O)c(C(=O)O)c3)cc2)ccc1F [Example 44, 5-(((4′-Fluoro-3′-methyl-[1,1′-biphenyl]-4-yl)methyl)amino)-2-hydroxybenzoic acid] | 
14 | 9% | 50% | 80% | O=C(O)c1cc(O)cc(NCc2ccc(-c3ccc(F)cc3)cc2)c1 [Example 45, 3-(((4′-Fluoro-[1,1′-biphenyl]-4-yl)methyl)amino)-5-hydroxybenzoic acid] | 
